Test [1] can be described thus: Organoleptic test in combination with sucrose against sucrose (sucrose enhancement, 2-AFC). Type of test: in vivo. More on the design: key: x = detected. Conditions: compound below its sweetness perception level in 6% sucrose vs 6% sucrose, 12 to 15 panelists. The method, then: The isolated pure compounds were dissolved in non-carbonated mineral water (“Evian”) in a concentration of 50 ppm (0.05 mg/ml), 25 ppm (0.025 mg/ml), 12.5 pm (0.0125 mg/ml) and […] (0.00625 mg/ml). The sweet taste of each sample was detected by a panel of 3-4 panelists to detect the sweetness perception level. The highest concentration below the sweetness perception level was used for the evaluation of the sweet taste enhancement of sucrose.
A solution of the isolated compound in a concentration below the sweetness perception level was dissolved in 6% sucrose solution. The sweet taste of this sample was compared to the sweet taste of a 6% sucrose solution by a panel of 12 to 15 panelists in a two-alternative forced-choice test (2-AFC. E2164-16_Standard Test Method for Directional Difference Test). The panelists were trained to differentiate between the sweetness of a 6% and a 7% Sucrose solution.

Test [2] in a line: Organoleptic test in combination with Rebaudioside M (Rebaudioside M enhancement, 2-AFC). Type of test: in vivo. More on the design: key: x = detected. Conditions: compound below its sweetness perception level in 150 ppm Rebaudioside M vs 150 ppm Rebaudioside M, 12 to 15 panelists. The method, then:
The isolated pure compounds were dissolved in non-carbonated mineral water (“Evian”) in a concentration of 50 ppm (0.05 mg/ml), 25 ppm (0.025 mg/ml), 12.5 pm (0.0125 mg/ml) and 6.125 ppm (0.006125 mg/ml). The sweet taste of each sample was detected by a panel of 3-4 panelists to detect the sweetness perception level. The highest concentration below the sweetness perception level was used for the evaluation of the sweet taste enhancement of Rebaudioside M.
A solution of the isolated compounds in a concentration below the sweetness perception level was dissolved in 150 ppm Rebaudioside M solution. The sweet taste of this sample was compared to the sweet taste of a 150 ppm Rebaudioside M solution by a panel of 12 to 15 panelists in a two-alternative forced-choice test (2-AFC. E2164-16_Standard Test Method for Directional Difference Test). The panelists were trained to differentiate between the sweetness of a 150 ppm and a 190 ppm Rebaudioside M solution.

The nature of test [3]: Organoleptic test of the compounds against sucrose (sweetness). Further details: key: 3: sweeter than the control solution; 2: sweetness comparable with the control solution; 1: less sweet than the control solution but still sweet. Conditions: 0.4 mg/ml (400 ppm) in non-carbonated mineral water vs sucrose 20 g/l; panel of 3-4 panelists. Type of test: in vivo. As to the method:
The isolated pure compound was dissolved in non-carbonated mineral water (“Evian”) in a concentration of 0.4 mg/ml (400 ppm). The sweet taste of each sample was compared by a panel of 3-4 panelists with a solution of sucrose in a concentration of 20 g/l.

The conditions of test [4]: 5% sucrose in water; cited from earlier work.

Take `C[C@@H]1O[C@@H](O[C@@H]2[C@@H](O[C@@H]3O[C@@H](C)[C@H](O[C@@H]4OC[C@H](O)[C@H](O[C@@H]5OC[C@@H](O)[C@H](O)[C@H]5O)[C@H]4O)[C@@H](OC4OC[C@](O)(CO)[C@H]4O)[C@H]3O)[C@H](OC(=O)[C@]34CCC(C)(C)C[C@H]3C3=CCC5[C@@]6(C)C[C@H](O)[C@H](O[C@@H]7O[C@H](CO[C@@H]8OC[C@H](O)[C@H](O)[C@H]8O)[C@@H](O)[C@H](O)[C@H]7O)C(C)(C)C6CC[C@@]5(C)[C@]3(C)C[C@H]4O)OC[C@H]2O)[C@H](O)[C@H](O)[C@H]1O` (stereo partly shown) [Astersaponin C]: the Sucrose enhancement entry in test [1] is listed as “x”. The “Reb M enhancement” value in test [2] was “x”. In addition, the Sweetness in test [3] is on record as 3.
Take `C[C@@H]1O[C@@H](O[C@H]2[C@H](OC(=O)[C@]34CCC(C)(C)C[C@H]3C3=CCC5[C@@]6(C)C[C@H](O)[C@H](O[C@@H]7O[C@H](CO[C@@H]8OC[C@H](O)[C@H](O)[C@H]8O)[C@@H](O)[C@H](O)[C@H]7O)C(C)(C)C6CC[C@@]5(C)[C@]3(C)C[C@H]4O)OC[C@@H](O)[C@@H]2O)[C@H](O)[C@H](O[C@@H]2OC[C@](O)(CO)[C@H]2O)[C@H]1O[C@@H]1OC[C@H](O)[C@H](O[C@@H]2OC[C@@H](O)[C@H](O)[C@H]2O)[C@H]1O` (stereo partly shown) [Astersaponin A]: in test [1], the Sucrose enhancement result was “x”. In test [2], the “Reb M enhancement” value is “x”. Moreover, the Sweetness in test [3] is 2.
With `C[C@@H]1O[C@@H](O[C@H]2[C@H](OC(=O)[C@]34CCC(C)(C)C[C@H]3C3=CCC5[C@@]6(C)CC[C@H](O[C@@H]7O[C@H](CO[C@@H]8OC[C@H](O)[C@H](O)[C@H]8O)[C@@H](O)[C@H](O)[C@H]7O)C(C)(C)C6CC[C@@]5(C)[C@]3(C)C[C@H]4O)OC[C@@H](O)[C@@H]2O)[C@H](O)[C@H](O[C@@H]2OC[C@](O)(CO)[C@H]2O)[C@H]1O[C@@H]1OC[C@H](O)[C@H](O[C@@H]2OC[C@@H](O)[C@H](O)[C@H]2O)[C@H]1O` (stereo partly shown) [Astersaponin B], the Sucrose enhancement result in test [1] is “x”. Further, in test [2], the “Reb M enhancement” value is recorded as “x”. Besides, the Sweetness in test [3] is reported as 1.
On to `C[C@@H]1O[C@@H](O[C@H]2[C@H](OC(=O)[C@]34CCC(C)(C)C[C@H]3C3=CC[C@@H]5[C@@]6(C)C[C@H](O)[C@H](O[C@@H]7O[C@H](CO[C@@H]8OC[C@H](O)[C@H](O)[C@H]8O)[C@@H](O)[C@H](O)[C@H]7O)C(C)(C)[C@@H]6CC[C@@]5(C)[C@]3(C)C[C@H]4O)OC[C@@H](O)[C@@H]2O)[C@H](O)[C@H](O)[C@H]1O[C@@H]1OC[C@H](O)[C@H](O[C@@H]2OC[C@@H](O)[C@H](O)[C@H]2O)[C@H]1O` [Astersaponin E], for which the Sucrose enhancement result in test [1] is “x”. The “Reb M enhancement” value in test [2] was “x”. The Sweetness in test [3] is given as 2.
For `COc1ccc([C@@H]2CC(=O)c3c(O)cc(O)cc3O2)cc1O` [hesperetin], in test [4], the “enhancement of the sweetness of sucrose” value is given as 41%.
Turning to `C[C@@H]1O[C@@H](O[C@H]2[C@H](OC(=O)[C@]34CCC(C)(C)C[C@H]3C3=CCC5[C@@]6(C)CC[C@H](O[C@@H]7O[C@H](CO[C@@H]8OC[C@H](O)[C@H](O)[C@H]8O)[C@@H](O)[C@H](O)[C@H]7O)C(C)(C)C6CC[C@@]5(C)[C@]3(C)C[C@H]4O)OC[C@@H](O)[C@@H]2O)[C@H](O)[C@H](O)[C@H]1O[C@@H]1OC[C@H](O)[C@H](O[C@@H]2OC[C@@H](O)[C@H](O)[C@H]2O)[C@H]1O` (stereo partly shown) [Astersaponin F], the Sucrose enhancement entry in test [1] is recorded as “x”. Besides, in test [2], the “Reb M enhancement” value is on record as “x”. In test [3], this compound registered a Sweetness of 1.
With `C[C@@H]1O[C@@H](O[C@@H]2[C@@H](O[C@@H]3O[C@@H](C)[C@H](O[C@@H]4OC[C@H](O)[C@H](O[C@@H]5OC[C@@H](O)[C@H](O)[C@H]5O)[C@H]4O)[C@@H](O[C@@H]4OC[C@](O)(CO)[C@H]4O)[C@H]3O)[C@H](OC(=O)[C@]34CCC(C)(C)C[C@H]3C3=CCC5[C@@]6(C)CC[C@H](O[C@@H]7O[C@H](CO[C@@H]8OC[C@H](O)[C@H](O)[C@H]8O)[C@@H](O)[C@H](O)[C@H]7O)C(C)(C)C6CC[C@@]5(C)[C@]3(C)C[C@H]4O)OC[C@H]2O)[C@H](O)[C@H](O)[C@H]1O` (stereo partly shown) [Astersaponin D], the Sucrose enhancement result in test [1] is “x”. In addition, the “Reb M enhancement” value in test [2] is “x”. The same compound gave a Sweetness in test [3] of 2.

Source of the values: patent US20230248034A1, “A SWEETENER OR SWEETNESS ENHANCER COMPOSITION” (ANALYTICON DISCOVERY GMBH, priority 2020, published 2023).
